This is an account of results in patent US6136797A, “Phospholipid derivatives of phosphono-carboxylic acids, the production of said derivatives and the use of said derivatives as antiviral medicaments” (priority 1995, dated 2000).

Converted amounts (≈) assume the structure as drawn. Counter-ions that a name gives are not always drawn. A value given as a limit tells only on which side of the number the result lay.

Series [1] has as its system bone marrow stem cells of the granulocytic/monocytic series. Kind of series: Bone marrow toxicity in vitro (CFU-GM assay). The conditions noted are these: for toxicity on bone marrow stem cells of the granulocytic/monocytic series: in words, up to the highest tested concentration of 100 μg/ml.
In series [2] the test system is Murine Cytomegaly Virus (MCMV). Kind of series: Murine Cytomegaly Virus (MCMV) model, survival rate. The format is in vivo, female Balb/c mice. The conditions noted are these: 8×10^5 PFU i.p.; oral bioavailability model; drug dose not given. As to the method:
Female Balb/c mice were treated i.p. with a dose of 8×10^5 PFU (plaque forming units).

For a further series, the system named is bone marrow. The conditions noted are these: AIDS patients; cited from earlier work.
The nature of series [3]: Stability (in the investigations and during production). The format is physicochemical. The conditions noted are these: in the investigations and during production / under the same conditions.
The test system of series [4] is HSV 1 and 2, influenza, HBV, VZV, EBV as well as retroviral infections. The conditions noted are these: cited from earlier work.
The conditions of series [5]: due to similarity to pyrophosphate by accumulation in bones; cited from earlier work.

Broadly, the IC50 is the concentration at which inhibition is half-maximal. In series [1] (Mus musculus, CFU-GM), `CCCCCCCCCCCCSCC(COP(=O)(O)CC(=O)O)OCCCCCCCCCC` (racemic) [DMDOP-PAA, R,S-(3-dodecylmercapto-2-decyloxy)-propoxy-hydroxy-phosphinyl acetic acid di-sodium salt] showed an IC50 greater than 100 µg/mL. Besides, in series [1], the “toxicity on bone marrow stem cells of the granulocytic/monocytic series” value (shortened to “toxicity … of the granulocytic/monocytic series”) is given as “no toxicity”. `CCCCCCCCCCCCSCC(COP(=O)(O)C(=O)O)OCCCCCCCCCC` (racemic) [DMDOP-PFA, R,S-(3-Dodecylmercapto-2-decyloxy)-propoxy-hydroxy-phosphinyl-formic acid di-sodium salt] had an IC50 in series [1] (Mus musculus, CFU-GM) greater than 100 µg/mL. For the same molecule, the “toxicity … of the granulocytic/monocytic series” value in series [1] is “no toxicity”. Also, in series [2], the “survival rate of the animals (rank order)” value (shortened to “survival rate of the animals”) is reported as “untreated<Foscarnet treated<DMDOP-PFA treated<DMDOP-PFA-OMe”.

With `CCCCCCCCCCCCSCC(COP(=O)(O)C(=O)OC)OCCCCCCCCCC` (racemic) [DMDOP-PFA-OMe, R,S-(3-dodecylmercapto-2-decyloxy)propoxy-hydroxy-phosphinylformic acid methyl ester], the “survival rate of the animals” value in series [2] was “untreated<Foscarnet treated<DMDOP-PFA treated<DMDOP-PFA-OMe”. Take `Cc1cn([C@H]2C[C@H](N=[N+]=[N-])[C@@H](CO)O2)c(=O)[nH]c1=O` [3'-azido-3'-deoxythymidine, 3'-Azido-3'-deoxythymidine]: the “treated patients needing blood transfusions due to toxic side effects on the bone marrow” value with bone marrow is on record as “about 50%”. For `N.N.[Cl][Pt][Cl]` [Cis-DDP (Cisplatin), Cisplatin], the IC50 in series [1] (CFU-GM assay, mean value±SEM, number of experiments in parentheses, highest tested concentration 100 μg/ml) turned out to be 0.45 ± 0.11 µg/mL. Regarding `COc1cccc2c1C(=O)c1c(O)c3c(c(O)c1C2=O)C[C@@](O)(C(=O)CO)C[C@@H]3O[C@H]1C[C@H](N)[C@H](O)[C@H](C)O1` [Doxorubicin], the IC50 in series [1] (Mus musculus, CFU-GM) amounted to 0.046 ± 0.007 µg/mL (≈ 0.0846 µM). In turn, `CCCCCCCCCCCCCCCCCCOCC(O)COP(=O)(O)C(=O)O` (stereo not drawn) [OOHP-PFA, (3-octadecyloxy-2-hydroxy)-propoxy-hydroxy-phosphinylformic acid] returned an IC50 in series [1] (Mus musculus, CFU-GM) of 94.5 µg/mL (≈ 209 µM). The “toxicity … of the granulocytic/monocytic series” value in series [1] is “more toxic than DMDOP-PFA and DMDOP-PAA”. Turning to `CCCCCCCCCCCCCCCCCCOCC(O)COP(=O)(O)C(=O)OCC` (stereo not drawn) [OOHP-PFAE, (3-octadecyloxy-2-hydroxy)-propoxy-hydroxy-phosphinylformic ethyl ester], the half-maximal inhibitory concentration (IC50) in series [1] (Mus musculus, CFU-GM) was found to be 59.4 µg/mL (≈ 123 µM). Further, the “toxicity … of the granulocytic/monocytic series” value in series [1] was “more toxic than DMDOP-PFA and DMDOP-PAA”.

As for `CCCCCCCCCCCCCCCCCCOC[C@@H](O)COP(=O)(O)C(=O)O` [batylphosphonoformate, 1-O-octadecyl-sn-glycero-3-phosphono-formate], the stability result in series [3] was “unstable”. `O=C(O)CP(=O)(O)O` [phosphonoacetic acid]: the midpoint of inhibition in series [1] (Mus musculus, CFU-GM), the IC50, lay at 62.9 µg/mL (≈ 449 µM). The “toxicity … of the granulocytic/monocytic series” value in series [1] is “more toxic than DMDOP-PFA and DMDOP-PAA”. The antiviral activity entry in series [4] is reported as “good antiviral activity”. In addition, in series [5], the toxicity entry is “toxic”. In the case of `O=C(O)P(=O)(O)O` [phosphonoformic acid], the IC50 in series [1] (Mus musculus, CFU-GM) was greater than 100 µg/mL. The “survival rate of the animals” value in series [2] is reported as “untreated<Foscarnet treated<DMDOP-PFA treated<DMDOP-PFA-OMe”. Also, in series [5], the toxicity entry is recorded as “toxic”.
